Test results from ChEMBL document CHEMBL4308841, “Synthesis, in vitro antiproliferative activity, and kinase inhibitory effects of pyrazole-containing diarylureas and diarylamides” (Eur J Med Chem, 2018).

What was measured:
A549 = assay: Growth inhibition of human A549/ATCC cells assessed as cell growth at 0.1 uM incubated for 48 hrs by sulforhodamine B assay relative to control; format: functional; conditions: A549, 48 h, read-out: Activity
MDA-MB-231 = assay: Growth inhibition of human MDA-MB-231 cells assessed as cell growth at 0.1 uM incubated for 48 hrs by sulforhodamine B assay relative to control; format: functional; conditions: MDA-MB-231, 48 h, read-out: Activity
Malme-3M = assay: Growth inhibition of human MALME-3M cells assessed as cell growth at 100 uM incubated for 48 hrs by sulforhodamine B assay relative to control; format: functional; conditions: read-out: Activity
HCT-15 = assay: Growth inhibition of human HCT15 cells assessed as cell growth at 1 uM incubated for 48 hrs by sulforhodamine B assay relative to control; format: functional; conditions: HCT-15, 48 h, read-out: Activity
NCI-H23 = assay: Growth inhibition of human NCI-H23 cells assessed as cell growth at 0.01 uM incubated for 48 hrs by sulforhodamine B assay relative to control; format: functional; conditions: NCI-H23, 48 h, read-out: Activity
KM12 = assay: Growth inhibition of human KM12 cells incubated for 48 hrs by sulforhodamine B assay; format: functional, cell-based; conditions: KM12, 48 h
SK-OV-3 = assay: Growth inhibition of human SKOV3 cells incubated for 48 hrs by sulforhodamine B assay; format: functional, cell-based; conditions: SK-OV-3, 48 h
MOLT-4 = assay: Growth inhibition of human MOLT4 cells assessed as cell growth at 0.01 uM incubated for 48 hrs by sulforhodamine B assay relative to control; format: functional; conditions: MOLT-4, 48 h, read-out: Activity
HOP-62 = assay: Growth inhibition of human HOP62 cells assessed as cell growth at 0.1 uM incubated for 48 hrs by sulforhodamine B assay relative to control; format: functional; conditions: HOP-62, 48 h, read-out: Activity
NCI-H460 = assay: Growth inhibition of human NCI-H460 cells assessed as cell growth at 0.01 uM incubated for 48 hrs by sulforhodamine B assay relative to control; format: functional; conditions: NCI-H460, 48 h, read-out: Activity
CCRF-CEM = assay: Growth inhibition of human CCRF-CEM cells incubated for 48 hrs by sulforhodamine B assay; format: functional, cell-based
NCI-H522 = assay: Growth inhibition of human NCI-H522 cells assessed as cell growth at 0.1 uM incubated for 48 hrs by sulforhodamine B assay relative to control; format: functional; conditions: NCI-H522, 48 h, read-out: Activity
ACHN [1] = assay: Growth inhibition of human ACHN cells incubated for 48 hrs by sulforhodamine B assay; format: functional, cell-based
SNB-19 = assay: Growth inhibition of human SNB19 cells incubated for 48 hrs by sulforhodamine B assay; format: functional, cell-based; conditions: SNB-19, 48 h
ACHN [2] = assay: Growth inhibition of human ACHN cells assessed as cell growth at 0.1 uM incubated for 48 hrs by sulforhodamine B assay relative to control; format: functional; conditions: read-out: Activity
T47D = assay: Growth inhibition of human T47D cells assessed as cell growth at 0.01 uM incubated for 48 hrs by sulforhodamine B assay relative to control; format: functional; conditions: read-out: Activity
HT-29 [3] = assay: Growth inhibition of human HT-29 cells incubated for 48 hrs by sulforhodamine B assay; format: functional, cell-based; conditions: HT-29, 48 h
OVCAR-8 = assay: Growth inhibition of human OVCAR8 cells assessed as cell growth at 0.01 uM incubated for 48 hrs by sulforhodamine B assay relative to control; format: functional; conditions: OVCAR-8, 48 h, read-out: Activity
DU-145 = assay: Growth inhibition of human DU145 cells assessed as cell growth at 1 uM incubated for 48 hrs by sulforhodamine B assay relative to control; format: functional; conditions: DU-145, 48 h, read-out: Activity
SF-295 = assay: Growth inhibition of human SF295 cells assessed as cell growth at 1 uM incubated for 48 hrs by sulforhodamine B assay relative to control; format: functional; conditions: SF-295, 48 h, read-out: Activity
ACHN [4] = assay: Growth inhibition of human ACHN cells assessed as cell growth at 0.01 uM incubated for 48 hrs by sulforhodamine B assay relative to control; format: functional; conditions: read-out: Activity
SK-MEL-5 = assay: Growth inhibition of human SK-MEL-5 cells incubated for 48 hrs by sulforhodamine B assay; format: functional, cell-based; conditions: SK-MEL-5, 48 h
K562 = assay: Growth inhibition of human K562 cells assessed as cell growth at 100 uM incubated for 48 hrs by sulforhodamine B assay relative to control; format: functional; conditions: K562, 48 h, read-out: Activity
HT-29 [5] = assay: Growth inhibition of human HT-29 cells assessed as cell growth at 0.1 uM incubated for 48 hrs by sulforhodamine B assay relative to control; format: functional; conditions: HT-29, 48 h, read-out: Activity
UACC-257 = assay: Growth inhibition of human UACC257 cells assessed as cell growth at 100 uM incubated for 48 hrs by sulforhodamine B assay relative to control; format: functional; conditions: UACC-257, 48 h, read-out: Activity
HL-60(TB) = assay: Growth inhibition of human HL-60(TB) cells assessed as cell growth at 1 uM incubated for 48 hrs by sulforhodamine B assay relative to control; format: functional; conditions: HL-60, 48 h, read-out: Activity
COLO 205 = assay: Growth inhibition of human COLO205 cells incubated for 48 hrs by sulforhodamine B assay; format: functional, cell-based; conditions: COLO 205, 48 h
SW-620 = assay: Growth inhibition of human SW620 cells assessed as cell growth at 100 uM incubated for 48 hrs by sulforhodamine B assay relative to control; format: functional; conditions: SW-620, 48 h, read-out: Activity
[6] = read-out: LC50 (the source's name)
[7] = read-out: pLC50 (the source's name) (converted)

## O=C(Nc1cccc(-n2cc(-c3ccncc3)c(-c3cc(O)cc(Cl)c3)n2)c1)Nc1ccc(Cl)c(C(F)(F)F)c1
A549
  growth at 0.1 µM: 100%
MDA-MB-231
  growth at 0.1 µM: 105%
Malme-3M
  growth at 100 µM: -91%
HCT-15
  growth at 1 µM: 90%
NCI-H23
  growth at 0.01 µM: 92%
KM12; read-out: GI50
  GI50: 2.5 µM
KM12; [6]
  CC50: 47.2 µM
KM12; read-out: TGI
  TGI: 90.6 µM
KM12; read-out: pGI50 (converted)
  GI50: 2.57 µM
KM12; [7]
  CC50: 46.8 µM
KM12; read-out: pTGI (converted)
  TGI: 9.77 µM
SK-OV-3; read-out: GI50
  GI50: 4.11 µM
SK-OV-3; [6]
  CC50: > 100 µM
SK-OV-3; read-out: TGI
  TGI: 30.7 µM
SK-OV-3; read-out: pGI50 (converted)
  GI50: 4.07 µM
SK-OV-3; [7]
  CC50: > 100 µM
SK-OV-3; read-out: pTGI (converted)
  TGI: 30.9 µM
MOLT-4
  growth at 0.01 µM: 100%
HOP-62
  growth at 0.1 µM: 97%
NCI-H460
  growth at 0.01 µM: 101%
CCRF-CEM; read-out: GI50
  GI50: 2.73 µM
CCRF-CEM; [6]
  CC50: > 100 µM
CCRF-CEM; read-out: TGI
  TGI: 85 µM
CCRF-CEM; read-out: pGI50 (converted)
  GI50: 2.75 µM
CCRF-CEM; [7]
  CC50: > 100 µM
CCRF-CEM; read-out: pTGI (converted)
  TGI: 8.91 µM
NCI-H522
  growth at 0.1 µM: 83%
ACHN [1]; read-out: GI50
  GI50: 3.1 µM
ACHN [1]; [6]
  CC50: > 100 µM
ACHN [1]; read-out: TGI
  TGI: 15.3 µM
ACHN [1]; read-out: pGI50 (converted)
  GI50: 3.09 µM
ACHN [1]; [7]
  CC50: > 100 µM
ACHN [1]; read-out: pTGI (converted)
  TGI: 15.1 µM
SNB-19; read-out: GI50
  GI50: 3.7 µM
SNB-19; [6]
  CC50: > 100 µM
SNB-19; read-out: TGI
  TGI: 15.9 µM
SNB-19; read-out: pGI50 (converted)
  GI50: 3.72 µM
SNB-19; [7]
  CC50: > 100 µM
SNB-19; read-out: pTGI (converted)
  TGI: 16.6 µM
ACHN [2]
  growth at 0.1 µM: 93%
T47D
  growth at 0.01 µM: 91%
HT-29 [3]; read-out: GI50
  GI50: 2.12 µM
HT-29 [3]; [6]
  CC50: 95.9 µM
HT-29 [3]; read-out: TGI
  TGI: 45.7 µM
HT-29 [3]; read-out: pGI50 (converted)
  GI50: 2.14 µM
HT-29 [3]; [7]
  CC50: 10 µM
HT-29 [3]; read-out: pTGI (converted)
  TGI: 4.57 µM
OVCAR-8
  growth at 0.01 µM: 102%
DU-145
  growth at 1 µM: 96%
SF-295
  growth at 1 µM: 91%
ACHN [4]
  growth at 0.01 µM: 104%
SK-MEL-5; read-out: GI50
  GI50: 1.59 µM
SK-MEL-5; [6]
  CC50: 51.5 µM
SK-MEL-5; read-out: TGI
  TGI: 32.3 µM
SK-MEL-5; read-out: pGI50 (converted)
  GI50: 1.7 µM
SK-MEL-5; [7]
  CC50: 6.17 µM
SK-MEL-5; read-out: pTGI (converted)
  TGI: 3.24 µM
K562
  growth at 100 µM: -9%
HT-29 [5]
  growth at 0.1 µM: 93%
UACC-257
  growth at 100 µM: -96%
HL-60(TB)
  growth at 1 µM: 113%
COLO 205; read-out: GI50
  GI50: 2.25 µM
COLO 205; [6]
  CC50: 15.9 µM
COLO 205; read-out: TGI
  TGI: 51.7 µM
COLO 205; read-out: pGI50 (converted)
  GI50: 2.82 µM
COLO 205; [7]
  CC50: 19.1 µM
COLO 205; read-out: pTGI (converted)
  TGI: 5.13 µM
SW-620
  growth at 100 µM: -58%
